Results as given in patent US20180116849A1, “SYSTEMS AND METHODS FOR DETERMINING FAILURE OF INTRAGASTRIC DEVICES” (Obalon Therapeutics, Inc., priority 2015, published 2018).
“Also recorded” adds a separate entry of the source. Structures can show the parent of a compound that is named as a salt.

What was measured:
[1] = cited from earlier work; for Side-effect of turning urine a color: drugs that may be a source of false positives for balloon leakage; for Urine color produced: humans / patients exposed to the dye
[2] = cited from earlier work; for Solubility in water: The Merck Index
[3] = Tables 4 and 5; cited from earlier work
[4] = Meng et al. 2013, cited from earlier work
patients = conditions: The Merck Index; cited from earlier work
[5] = The Merck Index; cited from earlier work
rat = conditions: cited from earlier work
[6] = Colour, fluorescence or emission of the dye; type: physicochemical; conditions: dyes identified as indicator for balloon rupture
Procedure: Experiments were conducted to identify appropriate dyes that may be incorporated into their gastric balloon device to function as an indicator for balloon rupture. The characteristics of the dyes considered for selection included the following: acceptable toxicology profile, acceptable solubility, intensely absorbing (high color intensity), stable in the gastric environment, and stable during excretion so as to be visually identified by the patient or a caregiver.

[7] = after the consumption of asparagus; cited from earlier work
[8] = Tables 4 and 5; cited from earlier work; remark: listed apart in the source
mice = conditions: The Merck Index; cited from earlier work

Compound: Nc1ccc(/N=N/c2ccccc2)c(N)n1 [phenazopyridine]
- Side-effect of turning urine a color [1]: red

Compound: CC[C@H](C)C(=O)O[C@H]1C[C@H](O)C=C2C=C[C@H](C)[C@H](CC[C@@H](O)C[C@@H](O)CC(=O)O)[C@H]21 [pravastatin]
- Side-effect of turning urine a color [1]: blue green

Compound: Cc1cc2nc3c(=O)[nH]c(=O)nc-3n(C[C@H](O)[C@H](O)[C@H](O)CO)c2cc1C [B vitamins (e.g. Riboflavin), Riboflavin]
- Solubility ([2]; water): Solubility: 1 g in 3 L g in 3 L water

Compound: Betalain [Betalain (including betanin)]
- Colour / fluorescence (Chemical Properties) [3]: Colored Red

Compound: CN(C)c1ccc2nc3ccc(N(C)C)cc3[s+]c2c1.[Cl-] [methylene blue]
- Conversion on passage through the gastrointestinal tract ([4]; gastrointestinal tract): reduced to leukomethylene blue
- Urine color produced [1]: blue-green discoloration of their urine; also recorded: blue-green color

Compound: COc1ccccc1OCC(O)COC(N)=O (stereo not drawn) [Methocarbamol, reference compound]
- Water soluble ([2]; @ 20 ° C.): Water soluble 2.5 g/ g/100 mL
- Toxicology: tolerability in patients (patients): Generally well-

Compound: CN(C)c1ccc2c(c1)Sc1cc(N(C)C)ccc1N2 [Leukomethylene blue]
- Excretion in urine ([4]; urine): excreted mostly unaltered

Compound: CC(C)c1cccc(C(C)C)c1O [propofol]
- Side-effect of turning urine a color [1]: green colored urine

Compound: COc1ccc2[nH]c([S+]([O-])Cc3ncc(C)c(OC)c3C)nc2c1 (stereo not drawn) [Omeprazole]
- Side-effect of turning urine a color [1]: blue green

Compound: O=C1/C(=C2\Nc3ccc(S(=O)(=O)[O-])cc3C2=O)Nc2ccc(S(=O)(=O)[O-])cc21.[Na+].[Na+] [Indigo carmine]
- pH indicator-blue at pH [5]: pH indicator-blue at pH < 11
- Solubility in water [2]: 1.0 g per 100 mL of water
- LD50 (rat, oral) (rat; rat, oral, Baker MSDS sheet): oral) = 2 g/kg (Baker
- Emission colour of dye identified as suitable [6]: blue emission

Compound: COc1cccc2c1C(=O)c1c(O)c3c(c(O)c1C2=O)C[C@@](O)(C(C)=O)C[C@@H]3O[C@H]1C[C@H](N)[C@H](O)[C@H](C)O1 [Daunorubicin]
- Side-effect of turning urine a color [1]: red

Compound: O=C(O)c1cc(O)c2c(c1)[C@H]([C@H]1c3cc(C(=O)O)cc(O)c3C(=O)c3c(O[C@@H]4O[C@H](CO)[C@@H](O)[C@H](O)[C@H]4O)cccc31)c1cccc(O[C@@H]3O[C@H](CO)[C@@H](O)[C@H](O)[C@H]3O)c1C2=O [Sennoside A]
- Solubility in water (in words) ([2]; water): insoluble in water.

Compound: CO[C@H]1/C=C/O[C@@]2(C)Oc3c(C)c(O)c4c(O)c(c(/C=N/N5CCN(C)CC5)c(O)c4c3C2=O)NC(=O)/C(C)=C\C=C\[C@H](C)[C@H](O)[C@@H](C)[C@@H](O)[C@@H](C)[C@H](OC(C)=O)[C@@H]1C [rifampin]
- Side-effect of turning urine a color [1]: red

Compound: O=C(O)C1CSSC1 [Asparagusic Acid]
- Urine odor [7]: characteristic odor to urine

Compound: Nc1nc(N)c2nc(-c3ccccc3)c(N)nc2n1 [Triamterene, reference compound]
- Solubility in water [2]: 1 part soluble in 1000 part soluble in 1000 parts water
- Emission colour of dye identified as suitable [6]: blue emission
- Toxicology: tolerability in patients (patients): Generally well-

Compound: O=C(O)c1cc(O)c2c(c1)[C@@H]([C@H]1c3cc(C(=O)O)cc(O)c3C(=O)c3c(O[C@@H]4O[C@H](CO)[C@@H](O)[C@H](O)[C@H]4O)cccc31)c1cccc(O[C@@H]3O[C@H](CO)[C@@H](O)[C@H](O)[C@H]3O)c1C2=O [Sennoside B]
- Solubility in water compared with Sennoside A ([2]; water, Merck): Sennoside B is more

Compound: Cc1cc2nc3c(=O)[nH]c(=O)nc-3n(C)c2cc1C [Lumiflavine]
- Toxicology (in words) [8]: None
- Solubility (in words, solvent not stated) [2]: poor solubility
- Solubility in water (in words) ([2]; water): Very sparingly soluble in
- Colour / fluorescence (Chemical Properties) [3]: Green fluorescence
- Urine color produced [1]: blue-green urine

Compound: CCN(Cc1cccc(S(=O)(=O)O)c1)c1ccc(C(=C2C=CC(=[N+](CC)Cc3cccc(S(=O)(=O)O)c3)C=C2)c2ccc(O)cc2S(=O)(=O)[O-])cc1 [Fast Green FCF]
- Toxicology (in words) [8]: may cause eye injury
- Solubility in alcohols (in words) ([2]; alcohols): Very soluble in water,
- Solubility in other organic solvents (in words) ([2]; other organic solvents): alcohols, insoluble in other
- Solubility in water (in words) ([2]; water): Very soluble in water,
- LD50 (rat) (rat; rat, in vivo): LD50 (rat) > 2 g/kg;
- Emission colour of dye identified as suitable [6]: green emission

Compound: CN(C)CCC=C1c2ccccc2CCc2ccccc21 [Amitriptyline Hydrochloride, reference compound]
- Solubility in chloroform (in words) ([2]; chloroform, salt): Salt is freely soluble
- Solubility in water (in words) ([2]; water): Salt is freely soluble
- LD50 (mice) (mice): 350 mg/kg
- LD50 (rats) (rat; rats, The Merck Index): 380 mg/kg

Compound: Cc1cc2nc3[nH]c(=O)[nH]c(=O)c3nc2cc1C [Lumichrome]
- Toxicology (in words) [8]: None
- Solubility (in words, solvent not stated) [2]: poor solubility
- Solubility in hot water (in words) ([2]; hot water): Sparingly soluble in hot water
- Colour / fluorescence (Chemical Properties) [3]: Blue fluorescence
- Urine color produced [1]: blue-green urine

Compound: O=C(O)C1=C/C(=C/C=[N+]2/c3cc(O)c(OC4OC(CO)[C@@H](O)C(O)C4O)cc3CC2C(=O)[O-])CC(C(=O)O)N1 (stereo in doubt) [betanin]
- Emission colour of dye identified as suitable [6]: red emission

Compound: CCC(=O)O[C@@H](O[P@](=O)(CCCCc1ccccc1)CC(=O)N1C[C@H](C2CCCCC2)C[C@H]1C(=O)O)C(C)C [fosinopril]
- Side-effect of turning urine a color [1]: blue green
